Test results: patent US7192781B2 (Pharmion Corporation, priority 2004, dated 2007)

Tests used:
[1] = Stability of 5-azacytidine stored in acetonitrile/plasma mixtures at different temperatures; details: for % of Fresh Prep / Mean [5-aza]: acetonitrile/plasma mixture
[2] = Stability of 5-azacytidine stored as an acetonitrile residue at minus 70° C.; details: for % of Time 0 / Mean [5-aza]: acetonitrile residue at minus 70° C.
[3] = Stability of 5-azacytidine in whole blood; details: for Mean [5-aza] / % of Time 0: whole blood;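 on all read-outs here: drug level determined in plasma separated from whole blood, extracted with acetonitrile plus internal standard, then quantified by LC/MS/MS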
[4] = [5-aza] 30 ng/mL, Freeze-thaw (minus 70° C. for 4 days followed by RT for 5.5 hours)
[5] = [5-aza] 400 ng/mL, Freeze-thaw (minus 70° C. for 4 days followed by RT for 5.5 hours)
[6] = [5-aza] 15 ng/mL, Room Temp, 15 mins
[7] = [5-aza] 15 ng/mL, Room Temp, 30 mins
[8] = [5-aza] 15 ng/mL, Room Temp, 45 mins
[9] = [5-aza] 200 ng/mL, Ice, 15 mins
[10] = [5-aza] 200 ng/mL, Ice, 30 mins
[11] = [5-aza] 200 ng/mL, Ice, 45 mins
[12] = [5-aza] 200 ng/mL, Ice, 60 mins
[13] = [5-aza] 200 ng/mL, Room Temp, 15 mins
[14] = [5-aza] 200 ng/mL, Room Temp, 30 mins
[15] = [5-aza] 200 ng/mL, Room Temp, 45 mins
[16] = [5-aza] 200 ng/mL, Room Temp, 60 mins

In the case of `Nc1ncn([C@@H]2O[C@H](CO)[C@@H](O)[C@H]2O)c(=O)n1` [5-azacytidine, 4-amino-1-β-D-ribofuranosyl-1,3,5-triazin-2(1H)-one], the “time stable in acetonitrile layer over plasma layer” value ([1]; about minus 70° C.) is reported as “at least 4 days”, the “time stable in acetonitrile layer over plasma layer (acetonitrile/plasma solution)” value ([1]; about room temperature, stable = within ±20% of freshly prepared sample) is reported as “at least 3 hours” and the “% of Fresh Prep” value ([1]; [5-aza] 30 ng/mL, 3 hours RT) is reported as 98.7%. The “Mean [5-aza]” value ([1]; [5-aza] 30 ng/mL, 3 hours RT) was 29.8 (N = 6) ng/mL, the “% of Fresh Prep” value [1, 4] was 103.3% and the “Mean [5-aza]” value [1, 4] was 31.2 (N = 6) ng/mL. For the same compound, the “Mean [5-aza]” value ([1]; [5-aza] 30 ng/mL, Fresh prep.) was 30.2 (N = 6) ng/mL, the “% of Fresh Prep” value ([1]; [5-aza] 400 ng/mL, 3 hours RT) was 89.4% and the “Mean [5-aza]” value ([1]; [5-aza] 400 ng/mL, 3 hours RT) was 371 (N = 6) ng/mL. For the same compound, the “% of Fresh Prep” value [1, 5] was 88.4%, the “Mean [5-aza]” value [1, 5] was 367 (N = 6) ng/mL and the “Mean [5-aza]” value ([1]; [5-aza] 400 ng/mL, Fresh prep.) was 415 (N = 6) ng/mL. The “time stable in acetonitrile/plasma solution” value ([1]; minus 70° C. with one freeze-thaw cycle of 5.5 hours at room temperature, stable = within ±20% of freshly prepared sample) was “at least 4 days”, the “time stable as acetonitrile residue” value ([2]; about minus 70° C., stable = within ±20% of freshly prepared sample) was “at least 14 months” and the “% of Time 0” value ([2]; [5-aza] 30 ng/mL, 4 Weeks) was 90.0%. For the same compound, the “Mean [5-aza]” value ([2]; [5-aza] 30 ng/mL, 4 Weeks) was 27.1 (N = 6) ng/mL, the “% of Time 0” value ([2]; [5-aza] 30 ng/mL, 6 Months) was 105.3% and the “Mean [5-aza]” value ([2]; [5-aza] 30 ng/mL, 6 Months) was 31.7 (N = 6) ng/mL. The “% of Time 0” value ([2]; [5-aza] 30 ng/mL, 7 Days) was 93.7%, the “Mean [5-aza]” value ([2]; [5-aza] 30 ng/mL, 7 Days) was 28.2 (N = 6) ng/mL and the “% of Time 0” value ([2]; [5-aza] 30 ng/mL, 14 Days) was 97.3%. The “Mean [5-aza]” value ([2]; [5-aza] 30 ng/mL, 14 Days) was 29.3 (N = 6) ng/mL, the “% of Time 0” value ([2]; [5-aza] 30 ng/mL, 14 Months) was 111.0% and the “Mean [5-aza]” value ([2]; [5-aza] 30 ng/mL, 14 Months) was 33.4 (N = 5) ng/mL. The “% of Time 0” value ([2]; [5-aza] 30 ng/mL, 15 Weeks) was 100.7%, the “Mean [5-aza]” value ([2]; [5-aza] 30 ng/mL, 15 Weeks) was 30.3 (N = 6) ng/mL and the “Mean [5-aza]” value ([2]; [5-aza] 30 ng/mL, Time 0) was 30.1 (N = 6) ng/mL. For the same compound, the “% of Time 0” value ([2]; [5-aza] 400 ng/mL, 4 Weeks) was 95.6%, the “Mean [5-aza]” value ([2]; [5-aza] 400 ng/mL, 4 Weeks) was 365 (N = 5) ng/mL and the “% of Time 0” value ([2]; [5-aza] 400 ng/mL, 6 Months) was 97.4%. The “Mean [5-aza]” value ([2]; [5-aza] 400 ng/mL, 6 Months) was 372 (N = 5) ng/mL, the “% of Time 0” value ([2]; [5-aza] 400 ng/mL, 7 Days) was 98.7% and the “Mean [5-aza]” value ([2]; [5-aza] 400 ng/mL, 7 Days) was 377 (N = 6) ng/mL. For the same compound, the “% of Time 0” value ([2]; [5-aza] 400 ng/mL, 14 Days) was 91.6%, the “Mean [5-aza]” value ([2]; [5-aza] 400 ng/mL, 14 Days) was 350 (N = 6) ng/mL and the “% of Time 0” value ([2]; [5-aza] 400 ng/mL, 14 Months) was 115.9%. For the same compound, the “Mean [5-aza]” value ([2]; [5-aza] 400 ng/mL, 14 Months) was 443 (N = 5) ng/mL, the “% of Time 0” value ([2]; [5-aza] 400 ng/mL, 15 Weeks) was 103.9% and the “Mean [5-aza]” value ([2]; [5-aza] 400 ng/mL, 15 Weeks) was 397 (N = 6) ng/mL. The “Mean [5-aza]” value ([2]; [5-aza] 400 ng/mL, Time 0) was 382 (N = 6) ng/mL, the “measured 5-azacytidine concentration, deviation from initial concentration in the plasma sample” value ([2]; samples prepared according to the methods, LC/MS/MS) was ≤ 20% and the “degradation in whole blood” value ([3]; room temperature) was “rapidly degrades”. The “degradation in whole blood” value ([3]; stored on ice, compared with room temperature) was “slightly reduced rate”, the “Mean [5-aza]” value ([3]; [5-aza] 15 ng/mL, Ice, 0 mins) was 16.1 (N = 5) ng/mL and the “% of Time 0” value ([3]; [5-aza] 15 ng/mL, Ice, 15 mins) was 80.7%. The “Mean [5-aza]” value ([3]; [5-aza] 15 ng/mL, Ice, 15 mins) was 13.0 (N = 4) ng/mL, the “% of Time 0” value ([3]; [5-aza] 15 ng/mL, Ice, 30 mins) was 77.6% and the “Mean [5-aza]” value ([3]; [5-aza] 15 ng/mL, Ice, 30 mins) was 12.5 (N = 3) ng/mL. The “% of Time 0” value ([3]; [5-aza] 15 ng/mL, Ice, 45 mins) was 70.8%, the “Mean [5-aza]” value ([3]; [5-aza] 15 ng/mL, Ice, 45 mins) was 11.4 (N = 4) ng/mL and the “% of Time 0” value ([3]; [5-aza] 15 ng/mL, Ice, 60 mins) was 71.4%. The “Mean [5-aza]” value ([3]; [5-aza] 15 ng/mL, Ice, 60 mins) was 11.5 (N = 5) ng/mL, the “Mean [5-aza]” value ([3]; [5-aza] 15 ng/mL, Room Temp, 0 mins) was 16.1 (N = 5) ng/mL and the “% of Time 0” value [3, 6] was 82.6%. The “Mean [5-aza]” value [3, 6] was 13.3 (N = 5) ng/mL, the “% of Time 0” value [3, 7] was 71.4% and the “Mean [5-aza]” value [3, 7] was 11.5 (N = 5) ng/mL. The “% of Time 0” value [3, 8] was 64.0%, the “Mean [5-aza]” value [3, 8] was 10.3 (N = 2) ng/mL and the “Mean [5-aza]” value ([3]; [5-aza] 200 ng/mL, Ice, 0 mins) was 152.0 (N = 5) ng/mL. For the same compound, the “% of Time 0” value [3, 9] was 79.6%, the “Mean [5-aza]” value [3, 9] was 121.0 (N = 5) ng/mL and the “% of Time 0” value [3, 10] was 73.0%. The “Mean [5-aza]” value [3, 10] was 111.0 (N = 5) ng/mL, the “% of Time 0” value [3, 11] was 72.4% and the “Mean [5-aza]” value [3, 11] was 110.0 (N = 5) ng/mL. The “% of Time 0” value [3, 12] was 57.2%, the “Mean [5-aza]” value [3, 12] was 87.0 (N = 5) ng/mL and the “Mean [5-aza]” value ([3]; [5-aza] 200 ng/mL, Room Temp, 0 mins) was 152.0 (N = 5) ng/mL. The “% of Time 0” value [3, 13] was 73.4%, the “Mean [5-aza]” value [3, 13] was 111.6 (N = 5) ng/mL and the “% of Time 0” value [3, 14] was 57.8%. For the same compound, the “Mean [5-aza]” value [3, 14] was 87.9 (N = 5) ng/mL, the “% of Time 0” value [3, 15] was 37.3% and the “Mean [5-aza]” value [3, 15] was 56.7 (N = 5) ng/mL. The “% of Time 0” value [3, 16] was 21.7% and the “Mean [5-aza]” value [3, 16] was 33.0 (N = 5) ng/mL.
